Measured values as given in US20220251079A1, “BENZO[B][1,8]NAPHTHYRIDINE ACETIC ACID DERIVATIVES AND METHODS OF USE” (STINGTHERA, INC., priority 2019, published 2022).

How the values were obtained:
[1] = biological target: T1, hSTING-R232 (Homo sapiens, UniProt Q86WV6, H232R); experiment: STING Differential Scanning Fluorimetry (DSF) assay, human; type: binding; conditions: human STING R232-WT, 5 μM protein
T1 construct: recombinant mouse or human STING protein (aa140-379); 6xHis-SUMO elsewhere) (cleaved yes); made in house
T1 sequence (Q86WV6 140-379 H232R): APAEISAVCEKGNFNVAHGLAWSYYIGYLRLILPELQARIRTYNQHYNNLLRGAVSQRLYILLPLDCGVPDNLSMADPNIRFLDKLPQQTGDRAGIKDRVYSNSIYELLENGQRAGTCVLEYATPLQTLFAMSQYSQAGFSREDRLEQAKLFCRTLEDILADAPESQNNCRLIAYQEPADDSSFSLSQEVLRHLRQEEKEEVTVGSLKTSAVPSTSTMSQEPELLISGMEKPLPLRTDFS
Procedure, shortened: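 Purified STING C-terminal domain (aa140-379, R232), human or mouse, at 5 μM in 100 mM NaCl, 30 mM HEPES pH 7.5 with SYBR Orange, was heated at 0.5° C./min. Tm came from dF/dT; ΔTm and FC50 were derived from an 11-point 2-fold series from 300 μM, in duplicate.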

[2] = biological target: T2, STING protein (Homo sapiens, UniProt Q86WV6, H232R); experiment: Cell based reporter assay of IRF activation (THP1-dual-KI R232, IRF luciferase); conditions: THP-1; read-out: THP1-dual-KI R232_IRF(Luciferase)_Activity Maximum measured (%)
T2 construct: host or cells: THP-1 dual reporter cells, TMEM173 modified from HAQ to R232 (THP1-dual-KI R232)
T2 sequence (Q86WV6 whole entry H232R): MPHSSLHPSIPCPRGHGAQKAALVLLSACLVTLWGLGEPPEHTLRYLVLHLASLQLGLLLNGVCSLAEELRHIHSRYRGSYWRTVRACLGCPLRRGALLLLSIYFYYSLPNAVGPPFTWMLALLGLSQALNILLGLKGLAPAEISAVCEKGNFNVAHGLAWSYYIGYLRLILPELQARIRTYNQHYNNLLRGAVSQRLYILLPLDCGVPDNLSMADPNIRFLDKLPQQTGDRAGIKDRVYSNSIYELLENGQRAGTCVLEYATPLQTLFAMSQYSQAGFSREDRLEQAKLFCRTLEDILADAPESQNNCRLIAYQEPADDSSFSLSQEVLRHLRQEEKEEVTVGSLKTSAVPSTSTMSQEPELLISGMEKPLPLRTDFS
Procedure, shortened: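 THP-1 monocytes stably carried an ISG54/5×ISRE firefly luciferase IRF reporter, with TMEM173 knock-in H71R A230G Q293R (R232 variant), and there was no PMA pre-activation. Compounds were tested at 8 points, 2-fold, in duplicate from 150 µM. Cell Titer Glo was applied after supernatant removal.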

[3] = biological target: T3, human STING protein (140-379) (Homo sapiens, UniProt Q86WV6, H232R); experiment: Radiometric filtration binding competition assay (WT_FBA_HIS-SUMO-hSWAT); conditions: read-out: WT-hSWAT IC50
T3 construct: 6XHIS-SUMO-hSTING (140-379); made in house; host or cells: BL-21(DE3) E. coli, pET vector
T3 sequence (Q86WV6 140-379 H232R): as the sequence (Q86WV6 140-379 H232R) above
Procedure, shortened: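 His-SUMO-tagged STING ligand-binding domain (human 140-379 or mouse 139-328, 0.5 μM) preincubated 30 min with compound (8 points, 2-fold from 300 μM), then competed with a tritiated ligand. Complexes were filtered and counted by scintillation. IC50 from non-linear regression, with Ki extrapolated.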

SMILES	WT_DSF_hSWAT Tm Shift (° C.) [1]	Emax [2] [%]	IC50 [3] [µM]
CSc1c(Cl)ccc2c(=O)c3cc(Cl)c(N(C)C)nc3n(CC(=O)O)c12 [Compound 58, sodium 2-(3,8-dichloro-2-(dimethylamino)-9-(methylthio)-5-oxobenzo[b][1,8]naphthyridin-10(5H)-yl)acetate]	D (“D” > 7° C.)	> 50	< 20
CCN(CCOC)c1nc2c(cc1Cl)c(=O)c1ccc(Cl)c(SC)c1n2CC(=O)O [Compound 59, sodium 2-(3,8-dichloro-2-(ethyl(2-methoxyethyl)amino)-9-(methylthio)-5-oxobenzo[b][1,8]naphthyridin-10(5H)-yl)acetate]	D (“D” > 7° C.)	> 50	20 to 100
CCOc1c(Cl)ccc2c(=O)c3ccc(NCC4CCOCC4)nc3n(CC(=O)O)c12 [Compound 60, sodium 2-(8-chloro-9-ethoxy-5-oxo-2-(((tetrahydro-2H-pyran-4-yl)methyl)amino)benzo[b][1,8]naphthyridin-10(5H)-yl)acetate]	D (“D” > 7° C.)	> 50	20 to 100
CSc1c(C)ccc2c(=O)c3ccc(C(C)(C)C)nc3n(CC(=O)O)c12 [Compound 63, sodium 2-(2-(tert-butyl)-8-methyl-9-(methylthio)-5-oxobenzo[b][1,8]naphthyridin-10(5H)-yl)acetate]	D (“D” > 7° C.)	> 50	20 to 100
Cc1ccc2c(=O)c3ccc(C(C)(C)C#N)nc3n(CC(=O)O)c2c1N(C)C [Compound 64, sodium 2-(2-(2-cyanopropan-2-yl)-9-(dimethylamino)-8-methyl-5-oxobenzo[b][1,8]naphthyridin-10(5H)-yl)acetate]	D (“D” > 7° C.)	> 50	20 to 100
CSc1c(Cl)ccc2c(=O)c3ccc(C=C4COC4)nc3n(CC(=O)O)c12 [Compound 65, 2-(8-chloro-9-(methylthio)-2-(oxetan-3-ylidenemethyl)-5-oxobenzo[b][1,8]naphthyridin-10(5H)-yl)acetic acid]	D (“D” > 7° C.)	> 50	20 to 100
CO[C@H]1C[C@@H](N(C)c2ccc3c(=O)c4ccc(C)c(SC)c4n(CC(=O)O)c3n2)C1 [Compound 69, 2-(2-(((1s,3s)-3-methoxycyclobutyl)(methyl)amino)-8-methyl-9-(methylthio)-5-oxobenzo[b][1,8]naphthyridin-10(5H)-yl)acetic acid]	D (“D” > 7° C.)	> 50	< 20
COCCN(c1ccc2c(=O)c3ccc(Cl)c(SC)c3n(CC(=O)O)c2n1)[C@H]1C[C@@H](OC)C1 [Compound 74, sodium 2-(8-chloro-2-(((1s,3s)-3-methoxycyclobutyl)(2-methoxyethyl)amino)-9-(methylthio)-5-oxobenzo[b][1,8]naphthyridin-10(5H)-yl)acetate]	D (“D” > 7° C.)	> 50	100 to 300
COCCN(C)c1nc2c(cc1Cl)c(=O)c1ccc(Cl)c(SC)c1n2CC(=O)O [Compound 75, sodium 2-(3,8-dichloro-2-((2-methoxyethyl)(methyl)amino)-9-(methylthio)-5-oxobenzo[b][1,8]naphthyridin-10(5H)-yl)acetate]	D (“D” > 7° C.)	> 50	20 to 100
CO[C@H]1C[C@@H](N(C)c2nc3c(cc2Cl)c(=O)c2ccc(Cl)c(SC)c2n3CC(=O)O)C1 [Compound 77, 2-(3,8-dichloro-2-(((1s,3s)-3-methoxycyclobutyl)(methyl)amino)-9-(methylthio)-5-oxobenzo[b][1,8]naphthyridin-10(5H)-yl)acetic acid]	D (“D” > 7° C.)	> 50	< 20
C=Cc1c(Cl)ccc2c(=O)c3ccc(N(C)C)nc3n(CC(=O)O)c12 [Compound 78, 2-(8-chloro-2-(dimethylamino)-5-oxo-9-vinylbenzo[b][1,8]naphthyridin-10(5H)-yl)acetic acid]	D (“D” > 7° C.)	> 50	20 to 100
CN(C)c1ccc2c(=O)c3ccc(Cl)c(-c4ccccc4)c3n(CC(=O)O)c2n1 [Compound 79, 2-(8-chloro-2-(dimethylamino)-5-oxo-9-phenylbenzo[b][1,8]naphthyridin-10(5H)-yl)acetic acid]	D (“D” > 7° C.)	> 50	20 to 100
CSc1c(Cl)ccc2c(=O)c3ccc(N(C)CCn4ccnc4C)nc3n(CC(=O)O)c12 [Compound 81, sodium 2-(8-chloro-2-{methyl[2-(2-methylimidazol-1-yl)ethyl]amino}-9-(methylsulfanyl)-5-oxobenzo[b]1,8-naphthyridin-10-yl)acetate]	D (“D” > 7° C.)	5 to 25	20 to 100

Other lines, results leading:

WT_DSF_hSWAT Tm Shift (° C.) [1]	Emax [2] [%]	IC50 [3] [µM]	SMILES
D (“D” > 7° C.)	> 50	20 to 100	Cc1ccc2c(=O)c3ccc(N(C)C)nc3n(CC(=O)O)c2c1N(C)C [Compound 61, sodium 2-(2,9-bis(dimethylamino)-8-methyl-5-oxobenzo[b][1,8]naphthyridin-10(5H)-yl)acetate]
D (“D” > 7° C.)	> 50	20 to 100	CSc1c(C)ccc2c(=O)c3ccc(N(C)C)nc3n(CC(=O)O)c12 [Compound 62, sodium 2-(2-(dimethylamino)-8-methyl-9-(methylthio)-5-oxobenzo[b][1,8]naphthyridin-10(5H)-yl)acetate]
D (“D” > 7° C.)	> 50	< 20	CO[C@H]1C[C@@H](N(C)c2ccc3c(=O)c4ccc(C)c(N(C)C)c4n(CC(=O)O)c3n2)C1 [Compound 67, 2-(9-(dimethylamino)-2-(((1s,3s)-3-methoxycyclobutyl)(methyl)amino)-8-methyl-5-oxobenzo[b][1,8]naphthyridin-10(5H)-yl)acetic acid]
D (“D” > 7° C.)	> 50	< 20	CSc1c(Cl)ccc2c(=O)c3ccc(C4(C)CC4)nc3n(CC(=O)O)c12 [Compound 68, sodium 2-(8-chloro-2-(1-methylcyclopropyl)-9-(methylthio)-5-oxobenzo[b][1,8]naphthyridin-10(5H)-yl)acetate]
D (“D” > 7° C.)	5 to 25	20 to 100	CSc1c(Cl)ccc2c(=O)c3ccc(N(C)CCn4ccnc4)nc3n(CC(=O)O)c12 [Compound 71, Sodium 2-(8-chloro-2-{[2-(imidazole-1-yl)ethyl](methyl)amino}-9-(methylsulfanyl)-5-oxobenzo[b]1,8-naphthyridin-10-yl)acetate]
D (“D” > 7° C.)	5 to 25	100 to 300	CCOc1c(Cl)ccc2c(=O)c3ccc(N(C)CCn4ccnc4)nc3n(CC(=O)O)c12 [Compound 72, sodium 2-(8-chloro-9-ethoxy-2-{[2-(imidazole-1-yl)ethyl](methyl)amino}-5-oxobenzo[b]1,8-naphthyridin-10-yl)acetate]
D (“D” > 7° C.)	> 50	< 20	CSc1c(Cl)ccc2c(=O)c3ccc(N(C)c4ccccc4)nc3n(CC(=O)O)c12 [Compound 73, sodium 2-(8-chloro-2-(methyl(phenyl)amino)-9-(methylthio)-5-oxobenzo[b][1,8]naphthyridin-10(5H)-yl)acetate]
D (“D” > 7° C.)	> 50	20 to 100	CN(C)c1c(Cl)ccc2c(=O)c3ccc(N(C)CCn4ccnc4)nc3n(CC(=O)O)c12 [Compound 80, sodium 2-[8-chloro-9-(dimethylamino)-2-{[2-(imidazole-1-yl)ethyl](methyl)amino}-5-oxobenzo[b]1,8-naphthyridin-10-yl]acetate]
D (“D” > 7° C.)	5 to 25	100 to 300	Cc1nccn1CCN(C)c1ccc2c(=O)c3ccc(Cl)c(N(C)C)c3n(CC(=O)O)c2n1 [Compound 82, sodium 2-[8-chloro-9-(dimethylamino)-2-{methyl[2-(2-methylimidazol-1-yl)ethyl]amino}-5-oxobenzo[b]1,8-naphthyridin-10-yl]acetate]
